Data from patent publication US20130129686A1, “Reducing Inflammation Using Cell Therapy” (Regents of the University, priority 2009, published 2013).
Entries after “also recorded” stand apart in the source; their conditions may differ.

Assays:
[1] = test system: allogeneic T cell proliferation; experiment: Mixed leukocyte reaction (MLR), 3H-thymidine uptake; type: cell-based, mouse
Description: Lymph nodes (LNs) were harvested from B6 mice and T-cells were purified using by negative selection using PE-conjugated anti-CD19, anti-CD11c, anti-NK1.1 and anti-PE magnetic beads (Miltenyi Biotech). Purity was routinely >95%. Spleens were harvested from BALB/c mice, T-cell depleted (anti-Thy1.1), and irradiated (3000 cGy). B6 T-cells were mixed at a 1:1 ratio with BALB/c splenic stimulators and plated in a 96 well round bottom plate (10^5 T-cells/well) or in the lower chamber of a 24 well plate TransWell insert (10^6 T-cells/well). MAPCs were irradiated (3000 cGy) and plated in a 96 well round bottom plate (10^4/well, 1:10) or in a 24 well TransWell plate (10^5/well, 1:10). Cells were incubated in “T-cell media” in 200 μl/well (96 well) or 800 μl/well (24 well) of RPMI 1640 (Invitrogen, Carlsbad, Calif.) supplemented with 10% FCS, […] 2-ME (Sigma-Aldrich), 10 mM HEPES buffer (Invitrogen), 1 mM sodium pyruvate (Invitrogen), amino acid supplements (1.5 mM L-glutamine, L-arginine, L-asparagine) (Sigma-Aldrich), 100 U/ml penicillin, […] streptomycin (Sigma-Aldrich). Cells were pulsed with ^3H-thymidine (1 μCi/well) 16-18 hours prior to harvesting and counted in the absence of scintillation fluid on a β-plate reader. […] Trypan blue exclusion was used to assess effects on live cells. […]

[2] = cited from earlier work
PGE2 = PGE2 quantification in MAPC culture supernatant (PGE2 assay kit); type: cell-based, mouse; conditions: overnight treatment of MAPCs, 5 μM, for the period of the MLR culture (9 days)
Description: Lymph nodes (LNs) were harvested from B6 mice and T-cells were purified using by negative selection using PE-conjugated anti-CD19, anti-CD11c, anti-NK1.1 and anti-PE magnetic beads (Miltenyi Biotech). Purity was routinely >95%. Spleens were harvested from BALB/c mice, T-cell depleted (anti-Thy1.1), and irradiated (3000 cGy). B6 T-cells were mixed at a 1:1 ratio with BALB/c splenic stimulators and plated in a 96 well round bottom plate (10^5 T-cells/well) or in the lower chamber of a 24 well plate TransWell insert (10^6 T-cells/well). MAPCs were irradiated (3000 cGy) and plated in a 96 well round bottom plate (10^4/well, 1:10) or in a 24 well TransWell plate (10^5/well, 1:10). […] Cells were pulsed with ^3H-thymidine (1 μCi/well) 16-18 hours prior to harvesting and counted in the absence of scintillation fluid on a β-plate reader. […]
Quantitative determination of PGE2 in cell culture supernatants was performed using PGE2 assay kit (R&D Systems) by following manufacturer's instructions. Quantities of IL-10, TGF-β, IL-2, TNF-α, IFN-γ, and IL-12 were determined using Luminex technology (R&D Systems). […] The color development is stopped, and the absorbance is read at 450 nm. […]

For `Cn1cc(C[C@@H](N)C(=O)O)c2ccccc21` [1MT, 1-methyl-D-tryptophan], the “additive effect with indomethacin pre-treatment of MAPCs” value ([1]; 200 μM 1MT in co-culture plus MAPCs pre-treated with 5 μM indomethacin) was “little/no additive effect” and the “T-cell proliferation in MLR-MAPC co-cultures with IDO inhibitor” value ([1]; 200 μM in culture media) was “did not increase T-cell proliferation; also recorded: did not affect T-cell proliferation”.
In the case of `CCCCC[C@H](O)/C=C/[C@H]1[C@H](O)CC(=O)[C@@H]1C/C=C\CCCC(=O)O` [PGE2, prostaglandin E2], the half-life in vivo [2] is listed as about 30 s.
For `COc1ccc2c(c1)c(CC(=O)O)c(C)n2C(=O)c1ccc(Cl)cc1` [indomethacin], the “upstream synthesis of PGE2 by MAPCs” value (PGE2) was “potently inhibited”.
